# Laboratory results: patent publication US20240285770A1, “PRECIPITATION SUPPRESSING AGENT” (Nippon Shinyaku Co., Ltd., priority 2021, published 2024)
# Read-outs that look alike come from different tables or passages of the source.
# Tests used:
# [1] = Plasma concentrations and estimation of urinary D-mannitol concentration after administration to cynomolgus monkeys; format: in vivo; conditions: 500 mg/kg; for concentration at 4 h / concentration at 1 h / concentration at 8 h / AUC(0-t) / clearance: cynomolgus monkey, plasma; for concentration at 4 h / concentration at 1 h / concentration at 8 h / Plasma concentration 0 hr (a) / Plasma concentration 0.25 hr (b) / Plasma concentration 24 hr (f): average of 3 animals; for concentration at 1 h: read-out: Plasma concentration 1 hr (c); for concentration at 8 h: read-out: Plasma concentration 8 hr (e); for AUC(0-t): read-out: AUC0-24 hr (g); for clearance: read-out: CLtot (h) (converted); for Estimated urinary concentration at 0.25 hr (k): amount of urine up to 0.25 hr assumed 3.91 mL; for Average plasma concentration from 0 hr to 0.25 hr (i): average of values a and b; for Amount excreted up to 0.25 hr (j): calculated by using CLtot
# Procedure: (§1) For setting the test conditions such as the concentrations of sugar and antisense oligomers assumed to be in urine, D-mannitol, which is […] and corresponds to a reduced form of D-mannose, and antisense oligomers were administered to cynomolgus monkeys, and the urinary concentration shortly after administration were estimated from the changes in plasma concentrations and the total body clearance.
# 20% D-mannitol was diluted to 50 mg/mL with physiological saline, the diluted solution thus obtained was administered at 10 mL/kg to 3 male and 3 female cynomolgus monkeys aged 1 to 2 year-old, and the plasma concentrations were then measured at 0 hours (immediately after administration), 0.25 hours, 1 hour, 4 hours, 8 hours, and 24 hours after administration (each of the values a, b, c, d, e, and f in Table 2 was an average value of 3 animals). From the values, the area under the plasma concentration-time curve (AUC0-24 hr) up to 24 hours after administration and the total body clearance (CLtot) were calculated (the values g and h in Table 2). Further, the plasma concentrations at 0 hours and 0.25 hours after administration (the values a and b in Table 2) were averaged to obtain the average plasma concentration from 0 hours to 0.25 hours (the value i in Table 2), and the amount of D-mannitol excreted per body weight up to 0.25 hours (the value j in Table 2) was calculated by using CLtot (the value h in Table 2). The amount of urine up to 0.25 hours after administration was assumed to be 3.91 mL, based on the fact that the daily amount of urine of cynomolgus monkeys (body weight: 5 kg) was 375 mL (B Clark, D A Smith Pharmacokinetics and toxicity testing. Crit Rev Toxicol. 1984; 12 (4): 343-85.), and the urinary mannitol concentration at 0.25 hours after administration was then estimated (the value k in Table 2).
# The estimated urinary concentration obtained as above was averaged, and the urinary concentration shortly after administration in a case of administering 500 mg/kg of D-mannitol was estimated to be 127.5 mg/mL. Since D-mannitol is rarely distributed in the body and rapidly excreted in urine without undergoing metabolism, it can be assumed that there is a linear relationship between the amount administered and the urinary concentration. Accordingly, by using the following formulas, the urinary concentration was converted into the amount of D-mannitol administered, and the amount administered was then converted into concentrations in the formulations at the time of administration (at the time of use) according to the body weight and the amount of dosing solution.
# [2] = Plasma concentrations and estimation of urinary PMO No. 12 concentration after administration to cynomolgus monkeys; format: in vivo; conditions: male cynomolgus monkeys; for Plasma concentration 0 hr (a) / Plasma concentration 0.25 hr (b) / Plasma concentration 0.5 hr (c) / Plasma concentration 1 hr (d) / Plasma concentration 2 hr (e) / Plasma concentration 6 hr (f) / Plasma concentration 24 hr (g): average of 3 animals; for Estimated urinary concentration at 0.25 hr (l): amount of urine up to 0.25 hr assumed 3.91 mL; for Average plasma concentration from 0 hr to 0.25 hr (j): average of values a and b; for Amount excreted up to 0.25 hr (k): calculated by using CLtot
# Procedure: as §1
# From the values, the area under the plasma concentration-time curve (AUC0-24 hr) up to 24 hours after administration and the total body clearance (CLtot) were calculated (the values h and i in Table 3). Further, the plasma concentrations at 0 hours and 0.25 hours after administration (the values a and b in Table 3) were averaged to obtain the average plasma concentration from 0 hours to 0.25 hours (the value j in Table 3), and the amount of antisense oligomer excreted per body weight up to 0.25 hours (the value k in Table 3) was calculated by using CLtot (the value i in Table 3). The amount of urine up to 0.25 hours after administration was assumed to be 3.91 mL, based on the fact that the daily amount of urine of cynomolgus monkeys (body weight: 5 kg) was 375 mL, and the urinary antisense oligomer concentration at 0.25 hours after administration was then estimated (the value 1 in Table 3).
compound,measurement,setting,value
"OC[C@@H](O)[C@@H](O)[C@H](O)[C@H](O)CO [D-Mannitol, D-mannitol]",concentration at 4 h,[1]; female cynomolgus monkeys,90.3 µg/mL
same,concentration at 1 h,[1]; female cynomolgus monkeys,720 µg/mL
same,concentration at 8 h,[1]; female cynomolgus monkeys,4.87 µg/mL
same,AUC(0-t),[1]; female cynomolgus monkeys,2830 µg·h/mL
same,clearance,[1]; female cynomolgus monkeys,2.95 mL/min/kg
same,concentration at 4 h,[1]; male cynomolgus monkeys,89.2 µg/mL
same,concentration at 1 h,[1]; male cynomolgus monkeys,651 µg/mL
same,concentration at 8 h,[1]; male cynomolgus monkeys,4.67 µg/mL
same,AUC(0-t),[1]; male cynomolgus monkeys,2680 µg·h/mL
same,clearance,[1]; male cynomolgus monkeys,3.12 mL/min/kg
same,"urinary concentration shortly after administration (estimated, averaged)","[1]; cynomolgus monkeys, average of male and female estimates",127.5 mg/mL
same,Plasma concentration 0 hr (a),[1]; female cynomolgus monkeys,2950 µg/mL
same,Plasma concentration 0.25 hr (b),[1]; female cynomolgus monkeys,1490 µg/mL
same,Plasma concentration 24 hr (f),[1]; female cynomolgus monkeys,Below detection limit
same,Estimated urinary concentration at 0.25 hr (k),[1]; female cynomolgus monkeys,126 mg/mL
same,Average plasma concentration from 0 hr to 0.25 hr (i),[1]; female cynomolgus monkeys,2220 µg/mL
same,Amount excreted up to 0.25 hr (j),[1]; female cynomolgus monkeys,98235 µg/kg
same,Plasma concentration 0 hr (a),[1]; male cynomolgus monkeys,2810 µg/mL
same,Plasma concentration 0.25 hr (b),[1]; male cynomolgus monkeys,1510 µg/mL
same,Plasma concentration 24 hr (f),[1]; male cynomolgus monkeys,Below detection limit
same,Estimated urinary concentration at 0.25 hr (k),[1]; male cynomolgus monkeys,129 mg/mL
same,Average plasma concentration from 0 hr to 0.25 hr (i),[1]; male cynomolgus monkeys,2160 µg/mL
same,Amount excreted up to 0.25 hr (j),[1]; male cynomolgus monkeys,100980 µg/kg
"PMO No. 12: phosphorodiamidate morpholino antisense oligomer, sequence CCTCCGGTTCTGAAGGTGTTC, 5′-end Group(2) (all phosphorodiamidate morpholino (PMO); further chemistry not fully specified)",AUC0-24 hr (h),[2]; 10 mg/kg,50.25 µg·h/mL
same,CLtot (i),[2]; 10 mg/kg,3.317 mL/min/kg
same,Plasma concentration 0 hr (a),[2]; 10 mg/kg,137.6 µg/mL
same,Plasma concentration 0.25 hr (b),[2]; 10 mg/kg,30.95 µg/mL
same,Plasma concentration 0.5 hr (c),[2]; 10 mg/kg,19.06 µg/mL
same,Plasma concentration 1 hr (d),[2]; 10 mg/kg,9.79 µg/mL
same,Plasma concentration 2 hr (e),[2]; 10 mg/kg,4.328 µg/mL
same,Plasma concentration 6 hr (f),[2]; 10 mg/kg,Below detection limit
same,Plasma concentration 24 hr (g),[2]; 10 mg/kg,Below detection limit
same,Estimated urinary concentration at 0.25 hr (l),[2]; 10 mg/kg,5.362 mg/mL
same,Average plasma concentration from 0 hr to 0.25 hr (j),[2]; 10 mg/kg,84.28 µg/mL
same,Amount excreted up to 0.25 hr (k),[2]; 10 mg/kg,4193 µg/kg
same,AUC0-24 hr (h),[2]; 60 mg/kg,269.3 µg·h/mL
same,CLtot (i),[2]; 60 mg/kg,3.713 mL/min/kg
same,Plasma concentration 0 hr (a),[2]; 60 mg/kg,805.9 µg/mL
same,Plasma concentration 0.25 hr (b),[2]; 60 mg/kg,154.7 µg/mL
same,Plasma concentration 0.5 hr (c),[2]; 60 mg/kg,100.9 µg/mL
same,Plasma concentration 1 hr (d),[2]; 60 mg/kg,45.93 µg/mL
same,Plasma concentration 2 hr (e),[2]; 60 mg/kg,18.46 µg/mL
same,Plasma concentration 6 hr (f),[2]; 60 mg/kg,1.045 µg/mL
same,Plasma concentration 24 hr (g),[2]; 60 mg/kg,Below detection limit
same,Estimated urinary concentration at 0.25 hr (l),[2]; 60 mg/kg,34.21 mg/mL
same,Average plasma concentration from 0 hr to 0.25 hr (j),[2]; 60 mg/kg,480.3 µg/mL
same,Amount excreted up to 0.25 hr (k),[2]; 60 mg/kg,26753 µg/kg
